Source: ChEMBL document CHEMBL1147317, “Metachromin C, a new cytotoxic sesquiterpenoid from the Okinawan marine sponge Hippospongia metachromia” (J Nat Prod, 1989)
Converted amounts (≈) assume the structure as drawn.

Columns and labels:
[1] = Vasodilatory activity in rabbit coronary artery assessed as inhibition of KCl-induced contraction; assay type: functional, tissue-based, Oryctolagus cuniculus
L5178Y = assay: Cytotoxicity against mouse L5178Y cells; assay type: functional, cell-based
L1210 = assay: Cytotoxicity against mouse L1210 cells; assay type: functional, cell-based

Row | IC50 [1] [nM] | Compound | IC50 (L5178Y) [µg/mL] | IC50 (L1210) [µg/mL]
1 | 3000 | C=C1[C@H](C)CCC[C@]1(C)CC[C@@]1(C)C=Cc2c(O)c(OC)cc(OC)c2O1 [METACHROMIN B] |  | 
2 | 3000 | C=C1[C@H](C)CCC[C@]1(C)CC/C(C)=C/CC1=C(O)C(=O)C=C(OC)C1=O [METACHROMIN A] |  | 
3 | 3000 | COC1=CC(=O)C(O)=C(C/C=C(\C)CC[C@@]2(C)CCC=C(C)[C@H]2C)C1=O [METACHROMIN C] | 0.92 (≈ 2.57 µM) | 2 (≈ 5.58 µM)
